Test in all cases: Minimal inhibitory concentration (MIC) assay
Holding throughout (assay type): cell-based

Assay [1] concerns S. aureus ATCC 33592 (Sa92). Particulars: Staphylococcus aureus, ATCC33592; S. aureus ATCC 33592, antibiotic-resistant strain; read-out: Antimicrobial activity (MIC) Sa92. The protocol:
(§1) Minimal inhibitory concentration (MIC) assay The standard microdilution method recommended by the Clinical and Laboratory Standards Institute (CLSI) was used to determine the MIC of the antibiotics. The starting concentration of compounds was 50 μg/ml and 2-fold dilution was done down the 96 honeycomb well plate column. The MIC assay was conducted in triplicates.

The test system of assay [2] is S. epidermidis 700296 (Se). Particulars: Staphylococcus epidermidis, S. epidermidis 700296; read-out: Antimicrobial activity (MIC) Se. The protocol: as §1
For assay [3], the system named is Enterococcus faecalis ATCC 29212 (Es12). Conditions: ATCC29212; Enterococcus faecalis ATCC 29212; read-out: Antimicrobial activity (MIC) Es12. The protocol: as §1
In assay [4] the test system is S. aureus ATCC 33591 (Sa91). Particulars: Staphylococcus aureus, ATCC33591; S. aureus ATCC 33591, antibiotic-resistant strain; read-out: Antimicrobial activity (MIC) Sa91. As for the experimental part: as §1
Assay [5] relates to B. subtilis ATCC 6623 (Bs). Conditions: Bacillus subtilis, ATCC6623; B. subtilis ATCC 6623; read-out: Antimicrobial activity (MIC) Bs. The protocol: as §1
Assay [6] has as its system S. aureus BAA-2312 (Sa12). Particulars: Staphylococcus aureus, BAA2312; S. aureus BAA-2312, antibiotic-resistant strain; read-out: Antimicrobial activity (MIC) Sa12. As for the experimental part:
as §1

The subject of assay [7] is Enterococcus faecium ATCC 700221 (Em21). Particulars: Enterococcus faecium, ATCC700221, Enterococcus faecium ATCC 700221; read-out: Antimicrobial activity (MIC) Em21. As for the experimental part:
as §1

The subject of assay [8] is S. aureus ATCC 700699 (Sa99). Conditions: Staphylococcus aureus, ATCC700699; S. aureus ATCC 700699, antibiotic-resistant strain; read-out: Antimicrobial activity (MIC) Sa99. As for the experimental part: as §1
Assay [9] deals with S. aureus ATCC 25923 (Sa23). Conditions: Staphylococcus aureus, ATCC25923; S. aureus ATCC 25923, antibiotic susceptible strain; read-out: Antimicrobial activity (MIC) Sa23. The protocol:
as §1

Values after ≈ are worked out from the molar mass of the structure shown.

Turning to `C=C(C)[C@@H]1CC=C2c3sc(-c4ccc(Cl)cc4)nc3C[C@@H](C)[C@]2(C)C1` [Compound 19, (5R,5aS,7R)-2-(4-chlorophenyl)-7-isopropenyl-5,5a-dimethyl-5,6,7,8-tetrahydro-4H-benzo[g][1,3]benzothiazole], the MIC is more than 100 µg/mL in [1]; 50 µg/mL (≈ 135 µM) in assay [2]; more than 100 µg/mL in assay [3]; 50 µg/mL (≈ 135 µM) in [4]; 12.5 µg/mL (≈ 33.8 µM) in assay [5]; 25 µg/mL (≈ 67.6 µM) in [6]. Besides, the minimal inhibitory concentration (MIC) in [7] was more than 100 µg/mL; in [8], 25 µg/mL (≈ 67.6 µM); in assay [9], 25 µg/mL (≈ 67.6 µM).

Turning to `C=C(C)[C@@H]1CC=C2c3sc(Nc4ccccc4C(F)(F)F)nc3C[C@@H](C)[C@]2(C)C1` [Compound 27, (5R,5aS,7R)-7-isopropenyl-5,5a-dimethyl-N-[2-(trifluoromethyl)phenyl]-5,6,7,8-tetrahydro-4H-benzo[g][1,3]benzothiazol-2-amine], the MIC in [1], in assay [2], in [3], in assay [4], in [5] and in assay [6] was more than 100 µg/mL in each case. Further, the minimum inhibitory concentration (MIC) in assay [7] and in [8] was more than 100 µg/mL in each case.

As to `C=C(C)[C@@H]1CC=C2c3sc(-c4cccc(O)c4)nc3C[C@@H](C)[C@]2(C)C1` [Compound 14, 3-[(5R,5aS,7R)-7-isopropenyl-5,5a-dimethyl-5,6,7,8-tetrahydro-4H-benzo[g][1,3]benzothiazol-2-yl]phenol], the minimum inhibitory concentration (MIC) in assay [1], in assay [2], in [3], in assay [4], in assay [5] and in [6] was more than 100 µg/mL throughout. The values for the MIC in [7], in assay [8] and in assay [9] were more than 100 µg/mL, more than 100 µg/mL and 50 µg/mL (≈ 142 µM), respectively.

As for `C=C(C)[C@@H]1CC=C2c3sc(-c4ccc(OC)cc4)nc3C[C@@H](C)[C@]2(C)C1` [Compound 10, (5R,5aS,7R)-7-isopropenyl-2-(4-methoxyphenyl)-5,5a-dimethyl-5,6,7,8-tetrahydro-4H-benzo[g][1,3]benzothiazole], the minimum inhibitory concentration (MIC) in [1] was more than 100 µg/mL; in assay [2], more than 100 µg/mL; in assay [3], more than 100 µg/mL; in [4], 100 µg/mL (≈ 274 µM); in [5] it was 50 µg/mL (≈ 137 µM); in [6], 100 µg/mL (≈ 274 µM). In addition, the MIC was more than 100 µg/mL in assay [7], more than 100 µg/mL in [8] and 50 µg/mL (≈ 137 µM) in assay [9].

For the compound `C=C(C)[C@@H]1CC=C2c3sc(-c4ccc(Br)cc4)nc3C[C@@H](C)[C@]2(C)C1` [Compound 20, (5R,5aS,7R)-2-(4-bromophenyl)-7-isopropenyl-5,5a-dimethyl-5,6,7,8-tetrahydro-4H-benzo[g][1,3]benzothiazole], the MIC was more than 100 µg/mL in [1]; more than 100 µg/mL in assay [2]; more than 100 µg/mL in assay [3]; 50 µg/mL (≈ 121 µM) in assay [4]; more than 100 µg/mL in assay [5]; more than 100 µg/mL in assay [6]. Besides, the minimum inhibitory concentration (MIC) in [7], in [8] and in assay [9] was more than 100 µg/mL throughout.

As for `C=C(C)[C@@H]1CC=C2c3sc(C4CCOCC4)nc3C[C@@H](C)[C@]2(C)C1` [Compound 5, (5R,5aS,7R)-7-isopropenyl-5,5a-dimethyl-2-tetrahydropyran-4-yl-5,6,7,8-tetrahydro-4H-benzo[g][1,3]benzothiazole], the minimum inhibitory concentration (MIC) in [1] was 100 µg/mL (≈ 291 µM); in assay [2], more than 100 µg/mL; in assay [3], more than 100 µg/mL; in assay [4] it was more than 100 µg/mL; in assay [5], 50 µg/mL (≈ 146 µM); in [6], 100 µg/mL (≈ 291 µM). In addition, the minimal inhibitory concentration (MIC) in assay [7] is more than 100 µg/mL; in assay [8], more than 100 µg/mL; in assay [9], 100 µg/mL (≈ 291 µM).

For `C=C(C)[C@@H]1CC=C2c3sc(-c4ccc(F)cc4)nc3C[C@@H](C)[C@]2(C)C1` [Compound 18, (5R,5aS,7R)-2-(4-fluorophenyl)-7-isopropenyl-5,5a-dimethyl-5,6,7,8-tetrahydro-4H-benzo[g][1,3]benzothiazole], the MIC in assay [1] was more than 100 µg/mL; in assay [2], more than 100 µg/mL; in assay [3], more than 100 µg/mL; in assay [4], 50 µg/mL (≈ 141 µM); in assay [5], more than 100 µg/mL; in [6], 25 µg/mL (≈ 70.7 µM). Also, the MIC in assay [7], in assay [8] and in assay [9] was more than 100 µg/mL throughout.

Consider `C=C(C)[C@@H]1CC=C2c3sc(Nc4ccccc4[N+](=O)[O-])nc3C[C@@H](C)[C@]2(C)C1` [Compound 29, (5R,5aS,7R)-7-isopropenyl-5,5a-dimethyl-N-(2-nitrophenyl)-5,6,7,8-tetrahydro-4H-benzo[g][1,3]benzothiazol-2-amine], for which the MIC in assay [1], in [2], in assay [3], in assay [4], in [5] and in assay [6] was more than 100 µg/mL throughout. For the same compound, the MIC in [7] and in [8] was more than 100 µg/mL in each case.

Turning to `C=C(C)[C@@H]1CC=C2c3sc(Nc4cccc(C(F)(F)F)c4)nc3CC[C@]2(C)[C@H]1C` [Compound 28, (5aR,6S,7R)-7-isopropenyl-5a,6-dimethyl-N-[3-(trifluoromethyl)phenyl]-5,6,7,8-tetrahydro-4H-benzo[g][1,3]benzothiazol-2-amine], the MIC in assay [1], in [2], in assay [3], in assay [4], in assay [5] and in assay [6] was more than 100 µg/mL each time. The MIC in assay [7] and in assay [8] was more than 100 µg/mL each time.

With `C=C(C)[C@@H]1CC=C2c3sc(-c4ccc(C(F)(F)F)cc4)nc3C[C@@H](C)[C@]2(C)C1` [Compound 22, (5R,5aS,7R)-7-isopropenyl-5,5a-dimethyl-2-[4-(trifluoromethyl)phenyl]-5,6,7,8-tetra-tetrahydro-4H-benzo[g][1,3]benzothiazole], the MIC in assay [1], in assay [2], in [3], in [4], in [5] and in assay [6] was more than 100 µg/mL throughout. Moreover, the MIC in assay [7] and in assay [8] was more than 100 µg/mL in each case.

For `C=C(C)[C@@H]1CC=C2c3sc(-c4ccc(Oc5ccc(C(F)(F)F)cn5)cc4)nc3C[C@@H](C)[C@]2(C)C1` [Compound 12, (5R,5aS,7R)-7-isopropenyl-5,5a-dimethyl-2-[4-[[5-(trifluoromethyl)-2-pyridyl]oxy]phenyl]-5,6,7,8-tetrahydro-4H-benzo[g][1,3]benzothiazole], the minimal inhibitory concentration (MIC) in [1], in [2], in assay [3], in assay [4], in assay [5] and in [6] was more than 100 µg/mL each time. Further, the MIC in [7] and in [8] was more than 100 µg/mL in each case.

Consider `C=C(C)[C@@H]1CC=C2c3sc(-c4ccccc4)nc3C[C@@H](C)[C@]2(C)C1` [Compound 7, (5R,5aS,7R)-7-isopropenyl-5,5a-dimethyl-2-phenyl-5,6,7,8-tetrahydro-4H-benzo[g][1,3]benzothiazole], for which the minimum inhibitory concentration (MIC) in assay [1], in assay [2], in [3], in assay [4], in assay [5] and in assay [6] was more than 100 µg/mL throughout. The minimum inhibitory concentration (MIC) in assay [7] and in [8] was more than 100 µg/mL each time.

Take `C=C(C)[C@@H]1CC=C2c3sc(-c4ccc(C(C)(C)C)cc4)nc3C[C@@H](C)[C@]2(C)C1` [Compound 9, (5R,5aS,7R)-2-(4-tert-butylphenyl)-7-isopropenyl-5,5a-dimethyl-5,6,7,8-tetrahydro-4H-benzo[g][1,3]benzothiazole]: the minimal inhibitory concentration (MIC) in [1], in assay [2], in assay [3], in assay [4], in assay [5] and in assay [6] was more than 100 µg/mL throughout. Moreover, the MIC in assay [7] and in assay [8] was more than 100 µg/mL throughout.

`C=C(C)[C@@H]1CC=C2c3sc(-c4ccc([N+](=O)[O-])cc4)nc3C[C@@H](C)[C@]2(C)C1` [Compound 23, (5R,5aS,7R)-7-isopropenyl-5,5a-dimethyl-2-(4-nitrophenyl)-5,6,7,8-tetrahydro-4H-benzo [g][1,3]benzothiazole]: the minimal inhibitory concentration (MIC) in [1], in assay [2], in assay [3], in [4], in assay [5] and in [6] was more than 100 µg/mL in each case. Also, the MIC in assay [7] and in assay [8] was more than 100 µg/mL each time.
